Publication PMC6981144 (Nature Communications, 2020)
Values joined by “and” are separate entries in the source; they are usually repeats but may differ in a detail not shown here. Equal entries are not always repeated.

Tests used:
[1] = test system: GLP1R; assay: cAMP imaging in islets with FRET probe Epac2-camps; format: cell-based, mouse; conditions: Glp1r+/+ versus Glp1r(GE)−/− islets
Source text: Islets were transduced with adenovirus harboring the FRET sensor, Epac2-camps[56] (a kind gift from Prof. Dermot Cooper, University of Cambridge), before imaging using a Crest X-Light spinning disk system coupled to a Nikon Ti-E base and ×10/0.4 NA objective. Excitation was delivered at λ = 430–450 nm using a Lumencor Spectra X light engine. Emitted signals were detected at λ = 460–500 and λ = 520–550 nm for Cerulean and Citrine, respectively, using a Photometrics Delta Evolve EM-CCD. Imaging was performed in HEPES–bicarbonate buffer, containing (in mmol/L) 120 NaCl, 4.8 KCl, 24 NaHCO3, 0.5 Na2HPO4, 5 HEPES, 2.5 CaCl2, 1.2 MgCl2, and 3–17 D-glucose.

[2] = target: T1, GLP1R (Homo sapiens, UniProt P43220); assay: HTRF cAMP assay in HEK293-SNAP_GLP1R cells, agonist and antagonist modes, with or without PAM BETP; format: cell-based; conditions: n = 4 independent assays; for antagonist properties against GLP-1-induced cAMP production: applied at 1 µM, 30 min GLP-1 stimulation; for agonist or partial agonist activity (cAMP): ligand alone, 30 min
T1 construct: expressed in transfected cells
Protocol: (§1) Mean ± s.e.m. are shown. **P < 0.01 for all statistical tests. Source data are provided as a Source Data file.
Potency for cAMP generation and inhibition was tested in heterologous expression systems, comprising either stable CHO-K1-SNAP_GLP1R or HEK-SNAP_GLP1R cells, or transiently transfected YFP-AD293-SNAP_GLP1R cells. Briefly, cells were incubated with increasing concentrations of compound with and without allosteric modulator for 30 min, before harvesting, lysis and measurement of cAMP using either cAMP-Glo^TM (Promega) or HTRF (Cisbio) assays, according to the manufacturer’s instructions. All assays were performed in the presence of 100–500 µM IBMX to inhibit phosphodiesterase activity. EC50 values were calculated using log concentration–response curves fitted with a three-parameter or four-parameter equation. […]
pharmacology. HTRF cAMP assays in HEK-SNAP_GLP1R cells in agonist and antagonist modes, stimulated with ligand for 30 min. Note that LUXendins are GLP1R antagonists […]
are shown. Source data are provided as a Source Data file.
(1 picture or pasted object on this page, not shown here)

[3] = test system: GLP1R; assay: Insulin secretion in isolated Glp1r+/+ and Glp1r(GE)−/− islets; format: cell-based, mouse; conditions: for Insulin (secreted/total): G16.7+Ex4 (10 nM), individual repeats, listed as Ex4
Source text: For all statistical tests, *P < 0.05, **P < 0.01 and NS, non-significant. […] Mean ± s.e.m. are shown. Source data are provided as a Source Data file.

[4] = test system: GLP1R; assay: Surface GLP1R expression in islets, GLP1R monoclonal antibody staining; format: cell-based, mouse; conditions: LUXendin555 250 nM, LUXendin645 100 nM, Ex9 250 nM
Source text: as §1

T1 sequence (P43220 24-463): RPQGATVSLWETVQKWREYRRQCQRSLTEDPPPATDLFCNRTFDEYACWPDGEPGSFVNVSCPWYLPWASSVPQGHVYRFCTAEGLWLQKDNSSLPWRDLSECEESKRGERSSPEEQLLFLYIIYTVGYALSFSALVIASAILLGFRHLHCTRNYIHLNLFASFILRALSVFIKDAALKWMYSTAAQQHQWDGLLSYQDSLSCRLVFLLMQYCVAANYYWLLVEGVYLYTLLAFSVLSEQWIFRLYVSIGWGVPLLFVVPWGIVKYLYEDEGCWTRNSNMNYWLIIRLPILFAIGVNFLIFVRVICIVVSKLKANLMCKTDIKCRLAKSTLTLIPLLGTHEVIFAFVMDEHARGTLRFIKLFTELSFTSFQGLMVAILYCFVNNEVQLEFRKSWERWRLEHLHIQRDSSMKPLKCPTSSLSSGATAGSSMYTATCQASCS

Liraglutide (HAEGTFTSDVSSYLEGQAAKEFIAWLVRGRG; chains of the INN, looked up) [incretin-mimetic]
stimulation of cAMP rises in islets [1]: only able to stimulate cAMP rises in islets from wild-type

S39C-Exendin4(9–39): S39C mutant of Exendin4(9–39) with a C-terminal thiol handle
antagonist properties against GLP-1-induced cAMP production [2]: similarly blocked | agonist or partial agonist activity (cAMP) [2]: No agonist or partial agonist activity was detected

Exendin4(1–39)
Exendin4(1–39)-stimulated insulin secretion in Glp1r(GE)−/− islets ([3]; Ex4 10 nM): absence of Exendin4(1–39)-stimulated insulin secretion | Insulin (secreted/total) ([3]; KO islets): 0.004511 and 0.004222 and 0.01074 and 0.01469 and 0.006361 and 0.004456 and 0.008025 and 0.00578 and 0.004129 and 0.001581 and 0.003759 and 0.00219 and 0.001686 and 0.003265 and 0.005154 and 0.02304 and 0.01055 and 0.00295 | Insulin (secreted/total) ([3]; WT islets): 0.004112 and 0.004627 and 0.005837 and 0.009517 and 0.006319 and 0.005338 and 0.01271 and 0.01517 and 0.02135 and 0.009713 and 0.003732 and 0.0026 and 0.01717 and 0.03657 and 0.02723 and 0.004332

Exendin4(9–39)
GLP1R surface expression in islets [4]: no differences | antagonist properties against GLP-1-induced cAMP production [2]: similarly blocked | agonist or partial agonist activity (cAMP) [2]: No agonist or partial agonist activity was detected
